≈ marks a conversion by molar mass, not a printed value.
Experiments:
[1] = Absorbability through the gut, oral suspension in cyclodextrin solutions, plasma concentration in rats (Test Example 3); assay type: in vivo, Wistar male rats; details: 40% dimethyl β-type cyclodextrin vs control (0.5% sodium carboxymethyl cellulose), 20 mg/kg, rat
Method: 20 mg of Compound No. 3 was taken into a mortar, and 5 ml of an aqueous solution containing 1.7% of β-type cyclodextrin or 2% or 40% of dimethyl β-type cyclodextrin was added under stirring to obtain a suspension of Compound No. 3. The suspension was orally administered by an oral sonde to a group of three Wistar male rats (body weight: 200-250g). The dose of Compound No. 3 was 20 mg/kg rat body weight. Further, Compound No. 3 was likewise suspended in an aqueous solution containing 0.5% of sodium salt of carboxymethyl cellulose, and the suspension was used as the control ( in FIG. 3). After the administration, the blood was periodically sampled, and the plasma was separated. After the removal of protein by acetonitrile, Compound No. 3 in the plasma was quantitatively analyzed by a high speed liquid chromatography as shown in Test Example 1.

[2] = Oral capsules, plasma concentration in beagle dogs (Test Example 7); assay type: in vivo; details: for Concentration in the plasma: 0
Method: The capsules prepared in Example 3 corresponding to 20 mg/kg of Compound No. 3 were orally administered to three beagle dogs (male: body weight: 5 kg). Then, the blood was periodically sampled from the branchium vein, and the concentration of Compound No. 3 in the plasma was measured. To the control group, a suspension of Compound No. 3 (20 mg/ml) in an aqueous solution containing 0.5% of sodium salt of carboxymethyl cellulose was administered. It is evident that the present invention, the absorbability of Compound No. 3 increased.

L-1210 leukemia cells = test: Antitumour activity against intraperitoneally inoculated L-1210 leukemia, oral administration (Test Example 9); assay type: in vivo, BDF1 mice
From the text: The pharmacological activities of the pharmaceutical compositions of the present invention were studied.
To BDF1 mice (male, […]), L-1210 leukemia cells were intraperitoneally inoculated in an amount of 1×10^6 cells/mouse. One day later and 4 days later, a test drug was orally administered. […]

[3] = Solubility of Compound No. 3 in aqueous cyclodextrin solutions or polyethylene glycol 400 at 25° C. (Test Example 2); assay type: physicochemical
Method: 0.1 μmol of Compound No. 1 or No. 2 was added to 1 ml of an aqueous solution of each cyclodextrin with a concentration of from 0 to 8 mM, and the mixture was shaken at 25° C. for 100 hours. After completion of the shaking, the mixture was filtered through a millipore filter of 0.45 μm to obtain a filtrate.
Separation column: As the packing material, octadecylated silica gel was filled in a stainless steel tube having an internal diameter of from 0.39 to 4.6 mm and a length of from 100 to 300 mm.
Column temperature: 30° C.
Mobile phase: Mixture of acetonitrile-water (the mixing ratio was adjusted so that the eluting time of the drug becomes from 5 to 10 minutes).
Wave length for detection: 265 nm
7.5 mg of […]. was added to 1 ml of an aqueous solution of each cyclodextrin at various concentrations or to 1 ml of polyethylene glycol 400, and the solubility of Compound No. 3 at 25° C. was obtained in the same manner as the Test Example b 1.

[4] = dog, plasma, po, 20 mg/kg, control, suspension in 0.5% sodium salt of carboxymethyl cellulose
[5] = dog, plasma, po, 20 mg/kg, polyethylene glycol 400 capsules of Example 3, oral 20 mg/kg

SMILES: O=C(NC(=O)c1ccccc1[N+](=O)[O-])Nc1ccc(Oc2ncc(Br)cn2)c(Cl)c1 [Compound No. 3, N-(2-nitrobenzoyl)-N'-[4-(5-bromo-2-pyrimidinyloxy)-3-chlorophenyl]urea]
- concentration in the plasma relative to the control [1]: about 3.5 times
- Concentration in the plasma ([2]; control, suspension in 0.5% sodium salt of carboxymethyl cellulose, oral): 0 ng/mL
- concentration at 1 h [2, 4]: 70 ng/mL
- concentration at 2 h [2, 4]: 100 ng/mL
- concentration at 1 h [2, 5]: 610 ng/mL
- concentration at 2 h [2, 5]: 1120 ng/mL
- concentration at 4 h ([2]; dog, plasma, po, 20 mg/kg, polyethylene glycol 400 capsules of Example 3, oral 20 mg/kg, 4 hrs): 1110 ng/mL
- absorbability ([2]; polyethylene glycol 400 capsules of Example 3, oral): increased
- Concentration in the plasma ([2]; polyethylene glycol 400 capsules of Example 3, oral 20 mg/kg): 0 ng/mL
- antitumour activities (L-1210 leukemia cells; only when administered together with the substance specified in the invention): distinctly observed
- T/C (L-1210 leukemia cells; polyethylene glycol 400 + substrate + Compound No. 3, 6.25 mg/kg): 120%
- T/C (L-1210 leukemia cells; polyethylene glycol 400 + substrate + Compound No. 3, 12.5 mg/kg): 134%
- T/C (L-1210 leukemia cells; polyethylene glycol 400 + substrate + Compound No. 3, 25 mg/kg): 183%
- T/C (L-1210 leukemia cells; polyethylene glycol 400 + substrate + Compound No. 3, 50 mg/kg): 95%
- antitumour activities (L-1210 leukemia cells; polyethylene glycol 400 absent): no antitumour activities were observed
- T/C (L-1210 leukemia cells; substrate + Compound No. 3 (no polyethylene glycol 400), 6.25 mg/kg): 102%
- T/C (L-1210 leukemia cells; substrate + Compound No. 3 (no polyethylene glycol 400), 12.5 mg/kg): 102%
- T/C (L-1210 leukemia cells; substrate + Compound No. 3 (no polyethylene glycol 400), 25 mg/kg): 101%
- T/C (L-1210 leukemia cells; substrate + Compound No. 3 (no polyethylene glycol 400), 50 mg/kg): 103%
- solubility ([3]; aqueous dimethyl α-type cyclodextrin, dimethyl α-type cyclodextrin 17.5 mg/ml, aqueous): 0.294 µg/mL (≈ 0.597 µM)
- solubility ([3]; aqueous dimethyl β-type cyclodextrin, dimethyl β-type cyclodextrin 20.0 mg/ml, aqueous): 24.1 µg/mL (≈ 48.9 µM)
- solubility ([3]; aqueous dimethyl β-type cyclodextrin, dimethyl β-type cyclodextrin 140 mg/ml, aqueous): 5180 µg/mL (≈ 10500 µM)
- solubility ([3]; aqueous dimethyl β-type cyclodextrin, dimethyl β-type cyclodextrin 500 mg/ml, aqueous): 7440 µg/mL (≈ 15100 µM)
- solubility ([3]; aqueous solution, no additives, aqueous solution containing no additives): 0.024 µg/mL (≈ 0.0487 µM)
- solubility ([3]; aqueous trimethyl β-type cyclodextrin, trimethyl β-type cyclodextrin 21.4 mg/ml, aqueous): 1 µg/mL (≈ 2.03 µM)
- solubility ([3]; aqueous trimethyl β-type cyclodextrin, trimethyl β-type cyclodextrin 100 mg/ml, aqueous): 13.4 µg/mL (≈ 27.2 µM)
- solubility ([3]; aqueous trimethyl β-type cyclodextrin, trimethyl β-type cyclodextrin 200 mg/ml, aqueous): 30.4 µg/mL (≈ 61.7 µM)
- solubility ([3]; aqueous α-type cyclodextrin 14.6 mg/ml, α-type cyclodextrin 14.6 mg/ml, aqueous): 0.164 µg/mL (≈ 0.333 µM)
- solubility ([3]; aqueous β-type cyclodextrin 17.0 mg/ml, β-type cyclodextrin 17.0 mg/ml, aqueous): 1.64 µg/mL (≈ 3.33 µM)
- solubility ([3]; polyethylene glycol 400, organic solvent or mixture, polyethylene glycol 400, 100%): 7500 µg/mL (≈ 15200 µM)
